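Assay format: 96-well plates, 48-hour exposure. Abbreviation: GI50, concentration required for 50% inhibition of growth. The concentration for full growth arrest is given as TGI.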
Tests used:
Assay in all cases: NCI-60 cell line screen, 48 h
SK-MEL-5 melanoma = system: SK-MEL-5 melanoma
NCI-H522 lung = system: NCI-H522 lung
OVCAR-4 ovarian = system: OVCAR-4 ovarian
OVCAR-8 ovarian = system: OVCAR-8 ovarian
UO-31 renal = system: UO-31 renal
RXF 393 renal = system: RXF 393 renal
OVCAR-5 ovarian = system: OVCAR-5 ovarian
PC-3 prostate = system: PC-3 prostate
KM12 colon = system: KM12 colon
SF-539 CNS = system: SF-539 CNS
SNB-19 CNS = system: SNB-19 CNS
NCI-H226 lung = system: NCI-H226 lung
T-47D breast = system: T-47D breast
CAKI-1 renal = system: CAKI-1 renal
RPMI-8226 leukemia = system: RPMI-8226 leukemia
SK-MEL-2 melanoma = system: SK-MEL-2 melanoma
HOP-92 NSCLC = system: HOP-92 NSCLC
SK-MEL-28 melanoma = system: SK-MEL-28 melanoma
HCT-15 colon = system: HCT-15 colon
NCI-H23 lung = system: NCI-H23 lung
NCI/ADR-RES ovarian = system: NCI/ADR-RES ovarian
M14 melanoma = system: M14 melanoma
UACC-62 melanoma = system: UACC-62 melanoma
U251 CNS = system: U251 CNS
OVCAR-3 ovarian = system: OVCAR-3 ovarian
TK-10 renal = system: TK-10 renal
BT-549 breast = system: BT-549 breast
MDA-MB-231 breast = system: MDA-MB-231 breast
IGROV1 ovarian = system: IGROV1 ovarian
DU-145 prostate = system: DU-145 prostate
ACHN renal = system: ACHN renal
LOX IMVI melanoma = system: LOX IMVI melanoma
MCF7 breast = system: MCF7 breast
SF-268 CNS = system: SF-268 CNS
EKVX NSCLC = system: EKVX NSCLC
HOP-62 NSCLC = system: HOP-62 NSCLC
A549 NSCLC = system: A549 NSCLC
HL-60(TB) leukemia = system: HL-60(TB) leukemia
786-0 renal = system: 786-0 renal
NCI-H460 lung = system: NCI-H460 lung
HS 578T breast = system: HS 578T breast
HT29 colon = system: HT29 colon
SW-620 colon = system: SW-620 colon
SR leukemia = system: SR leukemia
HCT-116 colon = system: HCT-116 colon
CCRF-CEM leukemia = system: CCRF-CEM leukemia
SF-295 CNS = system: SF-295 CNS
UACC-257 melanoma = system: UACC-257 melanoma
MOLT-4 leukemia = system: MOLT-4 leukemia
MDA-MB-435 = system: MDA-MB-435
HCC-2998 colon = system: HCC-2998 colon
SK-OV-3 ovarian = system: SK-OV-3 ovarian
SN12C renal = system: SN12C renal
SNB-75 CNS = system: SNB-75 CNS
A498 renal = system: A498 renal
MALME-3M melanoma = system: MALME-3M melanoma
COLO 205 colon = system: COLO 205 colon

Structure (SMILES): CCc1ccc(C(=O)/C=C/C23c4ccccc4C(c4ccccc42)C2C(=O)NC(=O)C23)cc1 (centres undefined)
- GI50 (SK-MEL-5 melanoma): 1650 nM
- TGI (SK-MEL-5 melanoma): 3210 nM
- GI50 (NCI-H522 lung): 1960 nM
- TGI (NCI-H522 lung): 4890 nM
- GI50 (OVCAR-4 ovarian): 2900 nM
- TGI (OVCAR-4 ovarian): 11900 nM
- GI50 (OVCAR-8 ovarian): 2090 nM
- TGI (OVCAR-8 ovarian): 5680 nM
- GI50 (UO-31 renal): 1470 nM
- TGI (UO-31 renal): 5550 nM
- GI50 (RXF 393 renal): 1720 nM
- TGI (RXF 393 renal): 3240 nM
- GI50 (OVCAR-5 ovarian): 2230 nM
- TGI (OVCAR-5 ovarian): 5570 nM
- GI50 (PC-3 prostate): 1730 nM
- TGI (PC-3 prostate): 3700 nM
- GI50 (KM12 colon): 1820 nM
- TGI (KM12 colon): 3770 nM
- GI50 (SF-539 CNS): 1690 nM
- TGI (SF-539 CNS): 3220 nM
- GI50 (SNB-19 CNS): 1930 nM
- TGI (SNB-19 CNS): 3960 nM
- GI50 (NCI-H226 lung): 2680 nM
- TGI (NCI-H226 lung): 9120 nM
- GI50 (T-47D breast): 2280 nM
- TGI (T-47D breast): 6400 nM
- GI50 (CAKI-1 renal): 2270 nM
- TGI (CAKI-1 renal): 7290 nM
- GI50 (RPMI-8226 leukemia): 1870 nM
- TGI (RPMI-8226 leukemia): 4600 nM
- GI50 (SK-MEL-2 melanoma): 2230 nM
- TGI (SK-MEL-2 melanoma): 4650 nM
- GI50 (HOP-92 NSCLC): 1730 nM
- TGI (HOP-92 NSCLC): 3500 nM
- GI50 (SK-MEL-28 melanoma): 1960 nM
- TGI (SK-MEL-28 melanoma): 3600 nM
- GI50 (HCT-15 colon): 1790 nM
- TGI (HCT-15 colon): 4020 nM
- GI50 (NCI-H23 lung): 2090 nM
- TGI (NCI-H23 lung): 4150 nM
- GI50 (NCI/ADR-RES ovarian): 2150 nM
- TGI (NCI/ADR-RES ovarian): 4730 nM
- GI50 (M14 melanoma): 2070 nM
- TGI (M14 melanoma): 4740 nM
- GI50 (UACC-62 melanoma): 1730 nM
- TGI (UACC-62 melanoma): 3480 nM
- GI50 (U251 CNS): 1750 nM
- TGI (U251 CNS): 3170 nM
- GI50 (OVCAR-3 ovarian): 1710 nM
- TGI (OVCAR-3 ovarian): 3100 nM
- GI50 (TK-10 renal): 2620 nM
- TGI (TK-10 renal): 6470 nM
- GI50 (BT-549 breast): 1730 nM
- TGI (BT-549 breast): 3670 nM
- GI50 (MDA-MB-231 breast): 2760 nM
- TGI (MDA-MB-231 breast): 8330 nM
- GI50 (IGROV1 ovarian): 1760 nM
- TGI (IGROV1 ovarian): 4100 nM
- GI50 (DU-145 prostate): 1660 nM
- TGI (DU-145 prostate): 3080 nM
- GI50 (ACHN renal): 3350 nM
- TGI (ACHN renal): 12300 nM
- GI50 (LOX IMVI melanoma): 1670 nM
- TGI (LOX IMVI melanoma): 3160 nM
- GI50 (MCF7 breast): 1890 nM
- TGI (MCF7 breast): 5620 nM
- GI50 (SF-268 CNS): 1860 nM
- TGI (SF-268 CNS): 4090 nM
- GI50 (EKVX NSCLC): 1600 nM
- TGI (EKVX NSCLC): 3560 nM
- GI50 (HOP-62 NSCLC): 2870 nM
- TGI (HOP-62 NSCLC): 8820 nM
- GI50 (A549 NSCLC): 2070 nM
- TGI (A549 NSCLC): 5540 nM
- GI50 (HL-60(TB) leukemia): 69.7 nM
- TGI (HL-60(TB) leukemia): 1930 nM
- GI50 (786-0 renal): 1810 nM
- TGI (786-0 renal): 3540 nM
- GI50 (NCI-H460 lung): 2120 nM
- TGI (NCI-H460 lung): 5090 nM
- GI50 (HS 578T breast): 2240 nM
- TGI (HS 578T breast): 8730 nM
- GI50 (HT29 colon): 2200 nM
- TGI (HT29 colon): 4750 nM
- GI50 (SW-620 colon): 2370 nM
- TGI (SW-620 colon): 5720 nM
- GI50 (SR leukemia): 1370 nM
- TGI (SR leukemia): 4360 nM
- GI50 (HCT-116 colon): 1580 nM
- TGI (HCT-116 colon): 3650 nM
- GI50 (CCRF-CEM leukemia): 2660 nM
- TGI (CCRF-CEM leukemia): 11000 nM
- GI50 (SF-295 CNS): 2450 nM
- TGI (SF-295 CNS): 5730 nM
- GI50 (UACC-257 melanoma): 1900 nM
- TGI (UACC-257 melanoma): 4150 nM
- GI50 (MOLT-4 leukemia): 2230 nM
- TGI (MOLT-4 leukemia): 7970 nM
- GI50 (MDA-MB-435): 2310 nM
- TGI (MDA-MB-435): 5530 nM
- GI50 (HCC-2998 colon): 2090 nM
- TGI (HCC-2998 colon): 3650 nM
- GI50 (SK-OV-3 ovarian): 2840 nM
- TGI (SK-OV-3 ovarian): 7540 nM
- GI50 (SN12C renal): 1760 nM
- TGI (SN12C renal): 3420 nM
- GI50 (SNB-75 CNS): 1670 nM
- TGI (SNB-75 CNS): 3450 nM
- GI50 (A498 renal): 1710 nM
- TGI (A498 renal): 3140 nM
- GI50 (MALME-3M melanoma): 1820 nM
- TGI (MALME-3M melanoma): 3960 nM
- GI50 (COLO 205 colon): 2130 nM
- TGI (COLO 205 colon): 4020 nM

Source: PubChem BioAssay (NCI)
